Results from PMC6136348, “In the quest for new targets for pathogen eradication: the adenylosuccinate synthetase from the bacterium Helicobacter pylori” (Journal of Enzyme Inhibition and Medicinal Chemistry, 2018).

Tests used:
[1] = target: T1, adenylosuccinate synthetase (AdSS) (Helicobacter pylori, UniProt P56137); assay: spectrophotometric enzyme assay at […] nm, competitive inhibition fit and Dixon plot (reaction product tested as inhibitor); format: biochemical
T1 construct: gene purA; recombinant protein expressed from pET21b-HPpurA
T1 sequence (P56137 1-411): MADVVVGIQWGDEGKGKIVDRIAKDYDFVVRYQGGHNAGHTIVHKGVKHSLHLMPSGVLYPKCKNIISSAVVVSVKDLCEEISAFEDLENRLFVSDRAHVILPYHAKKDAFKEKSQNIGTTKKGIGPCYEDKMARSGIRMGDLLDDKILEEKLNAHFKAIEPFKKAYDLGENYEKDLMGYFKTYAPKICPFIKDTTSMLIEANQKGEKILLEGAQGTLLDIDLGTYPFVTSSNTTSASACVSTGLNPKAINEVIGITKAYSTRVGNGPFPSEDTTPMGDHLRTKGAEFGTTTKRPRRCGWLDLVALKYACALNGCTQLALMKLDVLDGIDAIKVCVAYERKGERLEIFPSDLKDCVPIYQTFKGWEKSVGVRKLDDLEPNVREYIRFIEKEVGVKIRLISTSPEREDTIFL

[2] = target: T1, adenylosuccinate synthetase (AdSS); assay: spectrophotometric enzyme assay at […] nm, competitive inhibition fit and Dixon plot; format: biochemical

Row | Compound | Ki [1] | Ki [2]
1 | O=C(O)C[C@H](Nc1ncnc2c1ncn2[C@@H]1O[C@H](COP(=O)(O)O)[C@@H](O)[C@H]1O)C(=O)O [adenylosuccinate] | 3500 ± 300 nM | 
2 | O=CN(O)CC(=O)O [hadacidin] |  | 190 ± 20 nM
